Measurements from patent US20260183350A1, “ANTIBIOTIC-RESISTANT BACTERIA” (priority 2022, published 2026).

How the values were obtained:
[1] = test system: NDM-1 Enterobacter cloacae; assay: Carbon utilisation assay; type: cell-based; conditions: M9 minimal medium, 0.5% (w/v) carbon source
Method: (§1) New Delhi Metallo-β-lactamase 1 (NDM-1) Escherichia coli, NDM-1 Klebsiella pneumoniae, and NDM-1 Enterobacter cloacae were isolated from patients with intestinal CRE colonisation from the Imperial College Healthcare NHS Trust via rectal swab (REC ref. 19/LO/0112). The species were assigned by matrix assisted laser desorption ionization-time of flight (MALDI-TOF) mass spectrometry and later confirmed with 16S rRNA gene sequencing. CRE status was determined using X-pert Carba-R PCR detection (Cepheid, Sunnyvale, CA, USA), (Otter, J. A. et al. Detecting carbapenemase-producing Enterobacterales (CPE): an evaluation of an enhanced CPE infection control and screening programme in acute care. J Antimicrob Chemother 75, 2670-2676 (2020)).
(§2) Growth of CRE isolates on sole carbon or nitrogen sources was tested by inoculating each CRE isolate into a minimal medium supplemented with the nutrient of interest. First, CRE isolates were passaged from frozen glycerol stocks on Reasoner's 2A agar (R2A) plates. Cells were then suspended in M9 minimal media to a turbidity of 42% using a Turbidimeter (Biolog Inc.), then diluted a further 1 in 6 to inoculate the carbon or nitrogen utilisation assays. M9 minimal media contained the following (at final concentrations): 22 mM KH2PO4, 42 mM Na2HPO4, 9 mM NaCl, 0.49 mM MgSO4·7H2O, 0.09 mM CaCl2), 0.011 mM FeSO4·7H2O. For the carbon assays the M9 minimal medium was also supplemented with 0.1% (w/v) NH4Cl (as the nitrogen source) and the carbon sources were individually tested at 0.5% (w/v) concentration. For the nitrogen assays the M9 minimal medium was also supplemented with 0.5% (w/v) glucose (as the carbon source) and the nitrogen sources were individually tested at 0.1% (w/v) concentration. Cultures were incubated anaerobically and aerobically in a plate reader and OD600 readings were collected every 15 minutes for 24 hours.
(§3) Growth curves were analysed in Python (v3.6.5) using the AMiGA software (Midani, F. S., Collins, J. & Britton, R. A. AMiGA: Software for Automated Analysis of Microbial Growth Assays. mSystems 6, e0050821 (2021)). Growth of each isolate was measured with 6 wells from 2-3 independent experiments. Growth curves were normalised to the no substrate control using the subtraction method. AMiGA performed Gaussian Process regression to test differential growth between the substrate and the no substrate control. The functional difference in the OD (and its credible interval) was also computed between the substrate and the no substrate control.

NDM-1 Escherichia coli [2] = assay: Carbon utilisation assay; type: cell-based; conditions: M9 minimal medium, 0.5% (w/v) carbon source
Method: as §1, §2, §3

[3] = test system: NDM-1 Klebsiella pneumoniae; assay: Carbon utilisation assay; type: cell-based; conditions: M9 minimal medium, 0.5% (w/v) carbon source
Method: as §1, §2, §3

[4] = test system: NDM-1 Enterobacter cloacae; assay: Nitrogen utilisation assay; type: cell-based; conditions: aerobic; M9 minimal medium with glucose, 0.1% (w/v) nitrogen source
Method: as §1, §2, §3

NDM-1 Escherichia coli [5] = assay: Nitrogen utilisation assay; type: cell-based; conditions: aerobic; M9 minimal medium with glucose, 0.1% (w/v) nitrogen source
Method: as §1, §2, §3

[6] = test system: NDM-1 Klebsiella pneumoniae; assay: Nitrogen utilisation assay; type: cell-based; conditions: aerobic; M9 minimal medium with glucose, 0.1% (w/v) nitrogen source
Method: as §1, §2, §3

[7] = test system: NDM-1 Enterobacter cloacae; assay: Nutrient preference assay (nutrient mixture); type: cell-based; conditions: M9 with […] of each nutrient, up to 24 hours
Method: as §1
(§4) CRE isolates were passaged once from frozen glycerol stocks on R2A plates. Cells were suspended in M9 minimal media to a turbidity of 42% using a Turbidimeter (Biolog Inc.), then diluted 1 in 6 to inoculate the nutrient preference assays. M9 minimal media was supplemented with 0.015% of each of the following: L-arabinose, D-fructose, L-fucose, D-galactose, D-glucose, D-mannose, D-ribose, D-xylose, N-acetylglucosamine, D-maltose, sucrose, D-trehalose, L-alanine, L-arginine, L-aspartate, L-glutamate, L-glycine, L-isoleucine, L-leucine, L-lysine, L-methionine, L-phenylalanine, L-proline, L-threonine, L-tryptophan, L-tyrosine, L-valine, uracil, and succinate. Cultures were incubated anaerobically and aerobically in a plate reader and OD600 readings were collected every 15 minutes for 24 hours. Cultures were also incubated anaerobically and aerobically for 24 h and samples were collected at 0, 4, 8, and 24 hours post-inoculation for 1H-NMR spectroscopy. Changes in nutrients and metabolites by CRE isolates was compared to the sterile media control over time using a two-way mixed ANOVA followed by pairwise comparisons with Bonferroni correction. […]

NDM-1 Escherichia coli [8] = assay: Nutrient preference assay (nutrient mixture); type: cell-based; conditions: M9 with […] of each nutrient, up to 24 hours
Method: as §1, §4

[9] = test system: NDM-1 Klebsiella pneumoniae; assay: Nutrient preference assay (nutrient mixture); type: cell-based; conditions: M9 with […] of each nutrient, up to 24 hours
Method: as §1, §4

[10] = test system: vancomycin-resistant E. faecium; assay: VRE nutrient utilization protocol: carbon sources; type: cell-based, Enterococcus faecium; conditions: aerobic; VRE minimal medium
Method: (§5) VRE minimal media consists of potassium phosphate monobasic (4 g/L), potassium phosphate dibasic (14 g/L), sodium citrate (1 g/L), magnesium sulphate (0.2 g/L), ammonium sulphate (2 g/L), adenosine (0.04 g/L), thymine (0.04 g/L), Kao and Michayluk vitamin solution [Sigma, K3129, 50× Stock](5×), glucose (1 g/L) and amino acid solution [Sigma, R7131, RPMI-1640, 50×](25×). If the study was performed under anaerobic conditions, fumarate (5.2 g/L) was added to increase growth of VRE strains. Carbon-free minimal media was prepared by leaving out glucose while nitrogen-free minimal media was prepared without the amino acid solution. Media was filter sterilized with a 0.22 micron filter and used immediately aerobically or degassed overnight if used anaerobically.
(§6) VRE strains were grown on R2A overnight before the cells were suspended in 0.9% saline to an OD of 0.38 (λ=595 nm). A 10% dilution of the cell suspension was prepared using VRE minimal media to achieve a final well OD of […] (λ=595 nm) greater than the sterile media OD. Both carbon and nitrogen source utilization were evaluated by adding the inoculated media and a filter-sterilised nutrient source solution into a well in a 1:1 ration to a final volume of 100 μL in aerobic tests and 200 μL in anaerobic tests. Carbon sources were tested individually and compared to a carbon-free control. To test nitrogen source utilization, a nitrogen source solution was prepared containing L-alanine (2 g/L), L-arginine (2.5 g/L, L-asparagine (0.71 g/L), L-aspartate (0.25 g/L), L-cysteine (0.625 g/L), L-glutamate (0.25 g/L), L-Glycine (0.125 g/L), L-histidine (0.1875 g/L), L-isoleucine (0.625 g/L), L-leucine (0.625 g/L), L-lysine HCl (0.5 g/L), L-methionine (0.1875 g/L), L-phenylalanine (0.1875 g/L), L-proline (0.25 g/L), L-serine (0.375 g/L), L-threonine (0.25 g/L), L-tryptophan (0.0625 g/L), L-tyrosine (0.29 g/L), L-valine (0.25 g/L), N-acetylglucosamine (2 g/L), and uracil (2.5 g/L). To test the strains' ability to utilize individual nitrogen sources, separate solutions were prepared eliminating one nitrogen source each. The change in growth compared to the complete nitrogen source solution control was used to determine nitrogen utilization. All carbon and nitrogen sources were tested in a technical triplicate for each biological replicate. Aerobic plates were incubated with a plate seal while anaerobic plates were not. The aerobic plate reader was set to read the plate (λ=595 nm, 37° C., 22 flashes per well, orbital shaking of 100 rpm for 15 s prior to each read) every 15 minutes for 24 hours. The anaerobic plate reader read the plate (λ=595 nm, 37° C., stationary) every 15 minutes for 24 hours.

[11] = test system: vancomycin-resistant E. faecalis; assay: VRE nutrient utilization protocol: nitrogen sources, leave-one-out; type: cell-based, Enterococcus faecalis; conditions: aerobic; leave-one-out from nitrogen source mixture in minimal medium
Method: as §5, §6

[12] = test system: vancomycin-resistant E. faecium; assay: as above; type: cell-based, Enterococcus faecium; conditions: aerobic; leave-one-out from nitrogen source mixture in minimal medium
Method: as §5, §6

| SMILES | Use as sole carbon source to support E. cloacae growth ([1]; aerobic) | Use as sole carbon source to support E. coli growth (NDM-1 Escherichia coli [2]; aerobic) | Use as sole carbon source to support K. pneumoniae growth ([3]; aerobic) | Use as sole nitrogen source to support E. cloacae growth [4] | Use as sole nitrogen source to support E. coli growth (NDM-1 Escherichia coli [5]) | Use as sole nitrogen source to support K. pneumoniae growth [6] | Utilisation of nutrient by E. cloacae from nutrient mixture (1H-NMR) ([7]; anaerobic) | Utilisation of nutrient by E. coli from nutrient mixture (1H-NMR) (NDM-1 Escherichia coli [8]; anaerobic) | Utilisation of nutrient by K. pneumoniae from nutrient mixture (1H-NMR) ([9]; anaerobic) | Use as sole carbon source to support E. cloacae growth ([1]; anaerobic) | Use as sole carbon source to support E. coli growth (NDM-1 Escherichia coli [2]; anaerobic) | Use as sole carbon source to support K. pneumoniae growth ([3]; anaerobic) | Use as sole carbon source to support E. faecium growth [10] | Utilisation of nutrient by E. cloacae from nutrient mixture (1H-NMR) ([7]; aerobic) | Utilisation of nutrient by E. coli from nutrient mixture (1H-NMR) (NDM-1 Escherichia coli [8]; aerobic) | Utilisation of nutrient by K. pneumoniae from nutrient mixture (1H-NMR) ([9]; aerobic) | Use as nitrogen source to support E. faecalis growth [11] | Use as nitrogen source to support E. faecium growth [12] |
| --- | --- | --- | --- | --- | --- | --- | --- | --- | --- | --- | --- | --- | --- | --- | --- | --- | --- | --- |
| C[C@H](N)C(=O)O [alanine, L-alanine] | able to grow | able to grow | able to grow | able to grow | able to grow | able to grow | not utilised | not utilised | not utilised | – | – | – | – | – | – | – | – | – |
| O=C[C@H](O)[C@@H](O)[C@@H](O)CO [arabinose, L-arabinose] | – | – | – | – | – | – | – | – | – | could use | could use | could use | could use | – | – | – | – | – |
| NCCCC[C@H](N)C(=O)O [lysine, L-lysine] | – | – | – | able to grow | able to grow | able to grow | produced low levels | high utilisation | high utilisation | – | – | – | – | produced low levels | moderate utilisation | high utilisation | could use | could use |
| O=C[C@H](O)[C@@H](O)[C@H](O)CO [xylose, D-xylose] | – | – | – | – | – | – | – | – | – | could use | could use | could use | – | – | – | – | – | – |
| N[C@@H](Cc1c[nH]c2ccccc12)C(=O)O [tryptophan, L-tryptophan] | – | – | – | – | able to grow | – | not utilised | moderate utilisation | not utilised | – | – | – | could use | not utilised | high utilisation | not utilised | could use | could use |
| N[C@@H](CCC(=O)O)C(=O)O [glutamate, L-glutamate] | able to grow | – | able to grow | able to grow | able to grow | able to grow | – | – | – | – | – | – | – | moderate utilisation | moderate utilisation | moderate utilisation | could use | could use |
